From ChEMBL document CHEMBL1773043, “Platensimycin and platencin congeners from Streptomyces platensis” (J Nat Prod, 2011)
Calls of active or inactive are those of the source.

Tests used:
[1] = test system: Enterococcus faecalis; assay: Antibacterial activity against Enterococcus faecalis at 64 ug/ml after 20 hrs; type: functional, organism-based
[2] = test system: Enterococcus faecium; assay: Antibacterial activity against Enterococcus faecium at 64 ug/ml after 20 hrs; type: functional, organism-based
[3] = test system: Haemophilus influenzae; assay: Antibacterial activity against Haemophilus influenzae at 64 ug/ml after 20 hrs; type: functional, organism-based
[4] = test system: Staphylococcus aureus; assay: Antibacterial activity against Staphylococcus aureus at 64 ug/ml after 20 hrs; type: functional, organism-based
[5] = biological target: T1, 3-oxoacyl-[acyl-carrier-protein] synthase 2 (Staphylococcus aureus) (UniProt Q5TKS0); assay: Inhibition of Staphylococcus aureus […] assessed as [2-14C]-malonyl CoA incorporation after 90 mins by cell free-based scintillation counting
T1 sequence (whole entry): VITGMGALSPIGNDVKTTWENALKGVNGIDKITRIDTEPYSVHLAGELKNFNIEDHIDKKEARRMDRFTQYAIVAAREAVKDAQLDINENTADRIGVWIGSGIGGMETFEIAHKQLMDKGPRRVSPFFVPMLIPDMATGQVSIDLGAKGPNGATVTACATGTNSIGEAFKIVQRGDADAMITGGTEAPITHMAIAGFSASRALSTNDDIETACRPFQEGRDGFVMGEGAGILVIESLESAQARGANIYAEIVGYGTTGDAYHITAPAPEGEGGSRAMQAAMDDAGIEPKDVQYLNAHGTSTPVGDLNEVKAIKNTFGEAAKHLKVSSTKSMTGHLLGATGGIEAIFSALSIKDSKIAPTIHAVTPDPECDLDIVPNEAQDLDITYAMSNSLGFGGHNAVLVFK

[6] = test system: Streptococcus pneumoniae; assay: Antibacterial activity against Streptococcus pneumoniae at 64 ug/ml after 20 hrs; type: functional, organism-based
[7] = test system: Escherichia coli; assay: Antibacterial activity against Escherichia coli at 64 ug/ml after 20 hrs; type: functional, organism-based

C=C1CC23C=CC(=O)[C@@](C)(CCC(=O)Nc4c(O)ccc(C(=O)OC)c4O)C2CC1[C@@H](O)C3 (some centres not stated)
inactive: Activity [1] | Activity [2] | Activity [3] | Activity [4] | inhibition [5] | Activity [6] | Activity [7]

C[C@@]12C[C@@]34C=CC(=O)[C@@](C)(CCC(=O)Nc5c(O)ccc6c(=O)[nH]c(=O)oc56)C3[C@H](CC1C4)O2 (some centres not stated)
inactive: Activity [1] | Activity [2] | Activity [3] | Activity [4] | inhibition [5] | Activity [6] | Activity [7]

C[C@@]1(CCC(=O)Nc2c(O)ccc(C(=O)O)c2O)C(=O)C=CC23CC4CC(OC4(CO)C2)C31 (some centres not stated)
inactive: Activity [1] | Activity [2] | Activity [3] | Activity [4] | inhibition [5] | Activity [6] | Activity [7]

C=C1CC23C=CC(=O)[C@@](C)(CCC(=O)OCC(O)CO)C2CC1CC3 (some centres not stated)
inactive: Activity [1] | Activity [2] | Activity [3] | Activity [4] | inhibition [5] | Activity [6] | Activity [7]

COC(=O)c1ccc(O)c(NC(=O)CC[C@]2(C)C(=O)C=CC34CC5(C)OC(C[C@]5(O)C3)C42)c1O (some centres not stated)
inactive: Activity [1] | Activity [2] | Activity [3] | Activity [4] | inhibition [5] | Activity [6] | Activity [7]

C=C1CC23C=CC(=O)[C@@](C)(CCC(=O)OC)C2CC1[C@@H](O)C3 (some centres not stated)
inactive: Activity [1] | Activity [2] | Activity [3] | Activity [4] | inhibition [5] | Activity [6] | Activity [7]

COC(=O)[C@H](CCC(N)=O)NC(=O)/C(C)=C/CC[C@]1(C)C(=O)C=C[C@]23CC4C[C@H](O[C@]4(C)C2)C31 (some centres not stated)
inactive: Activity [1] | Activity [2] | Activity [3] | Activity [4] | inhibition [5] | Activity [6] | Activity [7]

C[C@@]12C[C@@]34C=CC(=O)[C@@](C)(CCC(=O)Nc5c(O)ccc(C(N)=O)c5O)C3[C@H](CC1C4)O2 (some centres not stated)
inactive: Activity [1] | Activity [2] | Activity [3] | Activity [4] | inhibition [5] | Activity [6] | Activity [7]

C=C1CC23C=CC(=O)[C@@](C)(CCC(=O)Nc4c(O)ccc(C(=O)O)c4O)C2CC1[C@@H](O)C3 (some centres not stated)
inactive: Activity [1] | Activity [2] | Activity [3] | Activity [4] | inhibition [5] | Activity [6] | Activity [7]

COC(=O)c1ccc(O)c(NC(=O)CC[C@]2(C)C(=O)C=C[C@]34CC5C[C@H](O[C@]5(C)C3)C42)c1O (some centres not stated)
inactive: Activity [1] | Activity [2] | Activity [3] | Activity [4] | inhibition [5] | Activity [6] | Activity [7]

C[C@]12O[C@H]3CC1C[C@@]1(C=CC(=O)[C@@](C)(CCC(=O)O)C31)[C@H]2O (some centres not stated)
inactive: Activity [1] | Activity [2] | Activity [3] | Activity [4] | inhibition [5] | Activity [6] | Activity [7]

COC(=O)c1ccc(O)c(NC(=O)CC[C@]2(C)C(=O)C=C[C@]34CC5C[C@H](O[C@]5(C)C3O)C42)c1O (some centres not stated)
inactive: Activity [1] | Activity [2] | Activity [3] | Activity [4] | inhibition [5] | Activity [6] | Activity [7]

C=C1CC23C=CC(=O)[C@@](C)(CCC(=O)Nc4c(O)ccc(C(=O)OC)c4O)C2CC1C[C@H]3O (some centres not stated)
inactive: Activity [1] | Activity [2] | Activity [3] | Activity [4] | inhibition [5] | Activity [6] | Activity [7]

C=C1C2CCC3(C=CC(=O)[C@@](C)(CCC(=O)Nc4c(O)ccc(C(=O)OC)c4O)C3C2)[C@H]1O (some centres not stated)
inactive: Activity [1] | Activity [2] | Activity [3] | Activity [4] | inhibition [5] | Activity [6] | Activity [7]

C[C@@]1(CCC(=O)Nc2c(O)ccc(C(=O)O)c2O)C(=O)C=CC23CC(CCC21)C(O)(CO)C3 (some centres not stated)
inactive: Activity [1] | Activity [2] | Activity [3] | Activity [4] | inhibition [5] | Activity [6] | Activity [7]

COC(=O)CC[C@]1(C)C(=O)C=C[C@]23CC4C[C@H](O[C@]4(C)C2)C31 (some centres not stated)
inactive: Activity [1] | Activity [2] | Activity [3] | Activity [4] | inhibition [5] | Activity [6] | Activity [7]

C[C@@]12C[C@@]34C=CC(=O)[C@@](C)(CCC(=O)Nc5c(O)cccc5O)C3[C@H](CC1C4)O2 (some centres not stated)
inactive: Activity [1] | Activity [2] | Activity [3] | Activity [4] | inhibition [5] | Activity [6] | Activity [7]

C=C1C[C@@]23C=CC(=O)[C@@](C)(CCC(=O)Nc4c(O)ccc(C(=O)O)c4O)[C@@H]2C[C@@H]1CC3
inactive: Activity [1] | Activity [2] | Activity [3] | Activity [4] | Activity [6] | Activity [7]

COC(=O)c1ccc(O)c(NC(=O)CC[C@]2(C)C(=O)C=CC34CCC(CC32)[C@@](O)(CO)C4)c1O (some centres not stated)
inactive: Activity [1] | Activity [2] | Activity [3] | Activity [4] | inhibition [5] | Activity [6] | Activity [7]

C=C1C[C@@]23C=CC(=O)[C@@](C)(CCC(=O)OC)C2C[C@@H]1C[C@H]3O (some centres not stated)
inactive: Activity [1] | Activity [2] | Activity [3] | Activity [4] | inhibition [5] | Activity [6] | Activity [7]

C[C@@]1(O)CC23C=CC(=O)[C@@](C)(CCC(=O)Nc4c(O)ccc(C(=O)O)c4O)C2CC1CC3 (some centres not stated)
inactive: Activity [1] | Activity [2] | Activity [3] | Activity [4] | inhibition [5] | Activity [6] | Activity [7]

C[C@@]12CC34C=CC(=O)[C@@](C)(CCC(=O)Nc5c(O)ccc(C(=O)O)c5O)C3[C@H](CC1[C@H]4O)O2 (some centres not stated)
inactive: Activity [1] | Activity [2] | Activity [3] | Activity [4] | inhibition [5] | Activity [6] | Activity [7]

C=C1CC23C=CC(=O)[C@@](C)(CCC(=O)Nc4c(O)ccc(C(=O)O)c4O)C2CC1C[C@H]3O (some centres not stated)
inactive: Activity [1] | Activity [2] | Activity [3] | Activity [4] | inhibition [5] | Activity [6] | Activity [7]

CC12C[C@@]34C=CC(=O)[C@@](C)(CCC(=O)Nc5c(O)ccc(C(=O)O)c5O)C3[C@H](CC1C4)O2 (some centres not stated)
inactive: Activity [1] | Activity [2] | Activity [3] | Activity [4] | Activity [6] | Activity [7]

COC(=O)c1ccc(O)c(NC(=O)CC[C@]2(C)C(=O)C=CC34CC(CCC32)C(O)(CO)C4)c1O (some centres not stated)
inactive: Activity [1] | Activity [2] | Activity [3] | Activity [4] | inhibition [5] | Activity [6] | Activity [7]

CC(=O)NCC[C@H](NC(=O)CC[C@]1(C)C(=O)C=C[C@]23CC4C[C@H](O[C@]4(C)C2)C31)C(=O)O (some centres not stated)
inactive: Activity [1] | Activity [2] | Activity [3] | Activity [4] | inhibition [5] | Activity [6] | Activity [7]

COC(=O)c1ccc(O)c(NC(=O)CC[C@]2(C)C(=O)C=CC34C[C@@]5(C)O[C@@H](CC5[C@H]3O)C42)c1O (some centres not stated)
inactive: Activity [1] | Activity [2] | Activity [3] | Activity [4] | inhibition [5] | Activity [6] | Activity [7]
